Measured values taken from patent US20140039044A1, “Hydroxylated Polymethoxyflavone Compositions” (WLLGEN, INC., priority 2006, published 2014).
Read-outs that look alike come from different tables or passages of the source.

Experiments:
calpain = experiment: Calpain activity assay (fluorogenic substrate, immunofluorescence); format: cell-based, human; conditions: MCF-7 cells; for Calpain activation, in words: day 3 or 6, FIG. 12A, 13A,B
Experimental: Calpain and caspase-12 activities were measured with the cell-permeable fluorogenic peptide substrates t-Boc-Leu-Met-CMAC (50 μM; CMAC, 7-amino-4-chloromethyl coumarin; Molecular Probes) and Ala-Thr-Ala-Asp-AFC (50 μM; AFC, 7-amino-4-trifluoromethyl coumarin; Caspase-12 Fluorometric Assay Kit, BioVision), respectively. See, e.g., Roser and Gores (2000) Meth. Mol. Biol. 144:2452-2466. Polyclonal antibodies directed against caspase-12 (BioVision) and monoclonal antibodies directed against the calpain small (cleaved) subunit (Chemicon) were used to evaluate activation of these proteases. For immunofluorescence labeling, the fixed and permeabilized cell preparations were pre-incubated with non-specific serum for 20 min, incubated for 1 h at 37° C. or overnight at 4° C. with the primary antibodies and 1 h at room temperature with secondary antibodies using ALEXA FLUOR-488 signal-amplification mouse antibodies (Molecular Probes) and FITC- or Texas Red-conjugated anti-rabbit and anti-mouse IgG (Molecular Probes). Fluorescence microscopy was carried out as described above for Ca^2+ imaging. Image analysis and measurement of fluorescence intensity was performed using MetaMorph 6.3 software (Molecular Devices/Universal Imaging), as described previously in Sergeev (1996) Endocrine 5: 335-340.

[1] = system: intracellular Ca^2+ stores in MCF-7 cells; experiment: Ca2+ mobilization from endoplasmic reticulum stores with thapsigargin (fura-2); format: cell-based, human; conditions: for Filling of the endoplasmic reticulum Ca^2+ stores, in words: 25 μM; for Decrease of the Ca^2+ mobilization response: compound 4: 6.25 μM, compound 5: 12.5 μM
Experimental: To evaluate Ca^2+ influx from the extracellular space, the Mn^2+ entry rate, as a reporter of Ca^2+ influx, was measured. The images were recorded at excitation of 360 nm (the fura-2 isosbestic point) and 2 mM of extracellular Mn^2+. The rates of Ca^2+ entry were estimated from the slope of the liner portion of curves of the fura-2 fluorescence quench by Mn^2+. To evaluate Ca^2+ release from the intracellular stores, cells grown on coverslips were placed in D-PBS, and the mobilizer of the endoplasmic reticulum Ca^2+-stores, thapsigargin (1 μM), was added after recording the basal [Ca^2+]i. The peak values of the [Ca^2+]i increase, indicating the filling level of the Ca^2+-stores, were measured with fura-2.
To investigate mechanism of a sustained increase in [Ca^2+]i after treatment with PMFs, the rates of the background Ca^2+ influx from the extracellular space and the magnitudes of Ca^2+ release from the endoplasmic reticulum stores with thapsigargin were measured in the treated cells using methods described above.
In FIG. 11A through 11D, the concentration for each PMF was as follows: compound 4: 6.25 μM; compound 5: 12.5 μM; compound 6: 25 μM; and compound 7: 25 μM. […] The Ca^2+ entry rates (C, D) are presented as tangents of the linear portions of the fura-2 quench curves. Data in panel C are presented as means±SE for control cells or cells treated with PMFs 3 days (black bars) or 6 days (gray bars). […] Mn^2+ or thapsigargin was added after recording the basal level of fluorescence or basal [Ca^2+]i for 30-60 s.

[2] = system: MCF-7 breast cancer cells; experiment: Cell growth inhibition (cell number, total nucleic acid content); format: cell-based, human; conditions: for IC50: MCF-7 cells, average of the day 3 and day 6 determinations, read-out: Inhibition of cell proliferation (IC50); for Inhibition of proliferation, in words: MCF-7 cells, 1, 3 or 6 days, FIG. 7
Experimental: Human colon carcinoma COLO205 and HT-29 cell lines (American Type Culture Collection (ATTC), Manassas, Va.) and the leukemia cell line HL-60 were maintained at 37° C. in 5% CO2 air in RPMI 1640 medium supplemented with 10% heat-inactivated fetal bovine serum (Gibco BRL, Grand Island, N.Y.), 100 units/mL penicillin, 100 μg/mL streptomycin and 2 mM 1-glutamine. The human gastric carcinoma AGS cell line (CCRC 60102), obtained from the Food Industry Research and Development Institute (Hsinchu, Taiwan), was maintained as described above, except that DMEM/F 12 was used as the medium rather than the RPMI 1640 medium. The human breast carcinoma MCF-7 cell line MCF-7 (ATTC) was cultured in RPMI 1640 medium supplemented with 5% fetal calf serum at 37° C. in a humidified atmosphere of 5% CO2 in air. The mouse macrophage cell line RAW 264.7 was maintained in RPMI 1640 supplemented with 100 U/ml penicillin, 100 μg/ml streptomycin, and 10% heat-inactivated fetal calf serum.
Cancer cells (2×10^5) were plated in 12-well Petri dishes. The next day, the medium was changed and treated with different concentration of the test compounds or compositions for 24 h. Where individual compounds were to be tested, stock solutions of the compound was prepared to contain 200 μM of the individual hydroxylated or non-hydroxylated PMF in dimethylsulfoxide (DMSO). Control cells were treated with DMSO to a final concentration of 0.05% (v/v). Depending on the objective of the particular experiment, cells were treating with test compound or composition for 1, 3 or 6 days. At the end of incubation, cells were harvested for cell count using a hemocytometer and measuring the cellular total nucleic acid content with the CyQUANT Cell Proliferation Assay Kit (Molecular Probes).
FIG. 7 presents cell number data, where cell numbers of cells treated to PMFs are presented as a percentage of control cells. The IC50 values for inhibition of cell proliferation are presented in Table 15 in which the concentration inhibiting cell growth by 50%, IC50, is presented as the average of the day 3 and day 6 determinations. The apparent minimal effective concentrations, ECmin, for induction of cell death, apoptosis, and increase in [Ca^2+]i are also indicated.

[3] = system: LPS-induced nitrite production in RAW 264.7 macrophages; experiment: Nitrite assay (Griess reaction); format: cell-based, mouse; conditions: 100 ng/ml LPS, PMF 30 μM, 24 h, FIG. 3
Experimental: Compounds or compositions were tested for anti-inflammatory effects by monitoring nitrite production in LPS-activated RAW264.7 cells. After treating the cells with LPS or LPS and test substance, supernatants were harvested and the amount of nitrite, an indicator of NO synthesis, was measured by use of the Griess reaction. Briefly, supernatants (100 μl) were mixed with the same volume of Griess reagent (1% sulphanilamide in 5% phosphoric acid and 0.1% naphthylethylenediamine dihydrochloride in water) in duplicate on 96-well plates. After incubation at room temperature for 10 min, absorbance at 570 nm was measured with a ELISA reader (Thermo Labsystems Multiskan Ascent, Finland).
The anti-inflammatory effects of compounds A-K were tested by measuring nitrite production in LPS-activated RAW 264.7 macrophages, as described in Section 8.4 above. Macrophages were treated with 100 ng/ml LPS alone or LPS and PMF (10 or 30 μM) for 24 h. At the end of incubation time, 100 μl of the culture medium was collected for the nitrite assay.

Compound: COc1ccc(-c2cc(=O)c3c(OC)c(OC)c(OC)cc3o2)cc1OC [Compound 7, 5,6,7,3′,4′-pentamethoxyflavone, reference compound]
- Calpain activation, in words (calpain): No significant calpain and caspase-12 activation
- Filling of the endoplasmic reticulum Ca^2+ stores, in words [1]: did not affect the filling of the endoplasmic reticulum Ca^2+ stores
- IC50 ([2]; Homo sapiens, MCF7): > 50 µM
- Inhibition of proliferation, in words [2]: inhibited proliferation of MCF-7 breast cancer cells in a dose- and time-dependent fashion

Compound: COc1c(OC)c(OC)c2c(=O)cc(-c3ccc(O)c(O)c3)oc2c1OC [H, 3′,4′-dihydroxy-5,6,7,8-tetramethoxyflavone]
- Rank of inhibitory potency on LPS-induced nitrite production [3]: H>G>K>C>I>B

Compound: COc1cc(-c2cc(=O)c3c(OC)c(OC)c(OC)c(OC)c3o2)ccc1O [Compound G, 4′-hydroxy-5,6,7,8,3′-pentamethoxyflavone]
- Rank of inhibitory potency on LPS-induced nitrite production [3]: H>G>K>C>I>B

Compound: COc1ccc(-c2cc(=O)c3c(OC)c(OC)c(OC)c(OC)c3o2)cc1O [I, 3′-hydroxy-5,6,7,8,4′-pentamethoxyflavone]
- Rank of inhibitory potency on LPS-induced nitrite production [3]: H>G>K>C>I>B

Compound: COc1ccc(-c2oc3c(OC)c(OC)c(OC)c(OC)c3c(=O)c2OC)cc1OC [D, 3,5,6,7,8,3,4-heptamethoxyflavone, reference compound]
- Number of cells with activated calpain, in words (calpain; day 3 of treatment): a trend in increasing the number of cells with activated calpain
- Calpain activation, in words (calpain): No significant calpain and caspase-12 activation
- Filling of the endoplasmic reticulum Ca^2+ stores, in words [1]: did not affect the filling of the endoplasmic reticulum Ca^2+ stores
- Inhibition of proliferation, in words [2]: inhibited proliferation of MCF-7 breast cancer cells in a dose- and time-dependent fashion
- IC50 [2]: > 50 µM

Compound: COc1ccc(-c2cc(=O)c3c(OC)c(OC)c(OC)cc3o2)cc1O [Compound 5, 3′-hydroxy-5,6,7,4′-tetramethoxyflavone]
- Calpain activation, in words (calpain): activation
- Decrease of the Ca^2+ mobilization response [1]: 1.35 fold
- IC50 ([2]; Homo sapiens, MCF7): 10.5 µM
- Inhibition of proliferation, in words [2]: inhibited proliferation of MCF-7 breast cancer cells in a dose- and time-dependent fashion

Compound: COc1ccc(-c2oc3c(OC)c(OC)c(OC)c(O)c3c(=O)c2OC)cc1OC [Compound C, 5-hydroxy-3,6,7,8,3′,4′-hexamethoxyflavone]
- Rank of inhibitory potency on LPS-induced nitrite production [3]: H>G>K>C>I>B
- Calpain activation, in words (calpain): activation
- Decrease of the Ca^2+ mobilization response [1]: 1.5 fold
- IC50 ([2]; Homo sapiens, MCF7): 2.5 µM
- Inhibition of proliferation, in words [2]: inhibited proliferation of MCF-7 breast cancer cells in a dose- and time-dependent fashion

Compound: COc1ccc(-c2cc(=O)c3c(O)c(OC)c(OC)c(OC)c3o2)cc1O [Compound K, 5,3′-dihydroxy-6,7,8,4′-tetramethoxyflavone]
- Rank of inhibitory potency on LPS-induced nitrite production [3]: H>G>K>C>I>B

Compound: COc1ccc(-c2oc3c(OC)c(OC)c(OC)c(OC)c3c(=O)c2O)cc1OC [B, 3-hydroxy-5,6,7,8,3′,4-hexamethoxyflavone]
- Rank of inhibitory potency on LPS-induced nitrite production [3]: H>G>K>C>I>B
